Test results published in the supplement of paper PMC12463676, “Small-molecule dissolution of stress granules by redox modulation benefits ALS models” (Nature Chemical Biology, 2025).

Columns and labels:
potassium arsenate = compound: O=[As]([O-])(O)O.[K+] [potassium arsenate]; test: thermal stability z-score vs DMSO; higher = more thermally stabilized by treatment; settings: HeLa; arsenate concentration 1 mM
Procedure: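 Cellular thermal proteome profiling in HeLa cells treated with 1 mM arsenate for 1 h (DMSO pretreatment), heated to ten temperatures (37-66.3 °C). Soluble protein was quantified by TMT mass spectrometry relative to DMSO controls; the thermal stability score was transformed to a z-score; mean of n = 3 experiments.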

lipoamide = compound: NC(=O)CCCCC1CCSS1 [lipoamide]; test: as above; settings: HeLa, lipoamide concentration 100 µM
Procedure: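 Cellular thermal proteome profiling in HeLa cells. Cells were treated with 100 µM lipoamide for 1 h, with or without 1 mM arsenate for a further 1 h, then heated to ten temperatures (37-66.3 °C), and soluble protein was quantified by TMT mass spectrometry relative to 0.1% DMSO controls. The thermal stability score (sum of log2 fold changes minus the abundance score) was transformed to a z-score; mean of n = 3 experiments.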

[1] = arsenate co-treatment: 1 mM arsenate 1 h
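Further: each temperature applied for 3 min, abundance score taken as mean log2 fold change at the two lowest temperatures, z-score obtained by mean subtraction and division by SD.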

Chain of UniProt Q9NPF5 (Q9NPF5 whole entry): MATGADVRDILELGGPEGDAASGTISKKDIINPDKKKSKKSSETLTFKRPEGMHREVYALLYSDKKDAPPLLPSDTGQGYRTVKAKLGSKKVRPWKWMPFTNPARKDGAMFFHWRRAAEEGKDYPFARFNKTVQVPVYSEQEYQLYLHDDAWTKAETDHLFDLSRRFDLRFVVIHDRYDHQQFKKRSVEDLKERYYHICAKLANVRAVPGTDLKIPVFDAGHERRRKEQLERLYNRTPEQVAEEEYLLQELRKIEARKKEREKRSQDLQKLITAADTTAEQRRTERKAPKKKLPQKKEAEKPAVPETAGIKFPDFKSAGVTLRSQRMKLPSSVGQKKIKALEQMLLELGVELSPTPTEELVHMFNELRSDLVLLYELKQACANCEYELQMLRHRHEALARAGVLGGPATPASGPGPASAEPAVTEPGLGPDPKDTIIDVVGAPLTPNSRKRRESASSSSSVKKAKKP
Chain of UniProt O95857 (O95857 whole entry): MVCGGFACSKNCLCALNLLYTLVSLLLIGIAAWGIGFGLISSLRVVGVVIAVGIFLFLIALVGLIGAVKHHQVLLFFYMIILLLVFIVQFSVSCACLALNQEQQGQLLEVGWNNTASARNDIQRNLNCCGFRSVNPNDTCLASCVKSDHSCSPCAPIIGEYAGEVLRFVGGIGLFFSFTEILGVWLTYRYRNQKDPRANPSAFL
Chain of UniProt Q6PJG6 (Q6PJG6 whole entry): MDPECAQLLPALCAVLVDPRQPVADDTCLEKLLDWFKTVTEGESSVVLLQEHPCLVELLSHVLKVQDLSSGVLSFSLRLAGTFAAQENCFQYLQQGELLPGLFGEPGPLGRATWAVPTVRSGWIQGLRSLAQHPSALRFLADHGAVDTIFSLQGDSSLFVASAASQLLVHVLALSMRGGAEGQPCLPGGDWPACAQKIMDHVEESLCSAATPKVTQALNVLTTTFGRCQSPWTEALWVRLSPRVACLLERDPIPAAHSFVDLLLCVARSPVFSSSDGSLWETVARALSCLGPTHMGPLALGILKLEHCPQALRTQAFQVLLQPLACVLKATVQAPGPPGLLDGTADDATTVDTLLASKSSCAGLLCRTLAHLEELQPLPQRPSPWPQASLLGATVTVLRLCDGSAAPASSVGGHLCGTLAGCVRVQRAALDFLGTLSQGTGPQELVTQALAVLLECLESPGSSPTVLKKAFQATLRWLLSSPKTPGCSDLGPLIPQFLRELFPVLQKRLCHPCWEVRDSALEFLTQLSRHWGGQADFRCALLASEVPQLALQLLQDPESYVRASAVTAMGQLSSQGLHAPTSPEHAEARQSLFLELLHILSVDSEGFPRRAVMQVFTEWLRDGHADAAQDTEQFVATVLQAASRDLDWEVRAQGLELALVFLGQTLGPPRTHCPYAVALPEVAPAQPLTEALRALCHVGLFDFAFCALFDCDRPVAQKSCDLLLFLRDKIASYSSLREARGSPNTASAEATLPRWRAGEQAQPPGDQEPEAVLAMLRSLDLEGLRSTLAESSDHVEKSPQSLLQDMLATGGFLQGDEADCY
Chain of UniProt O95905 (O95905 whole entry, the tested form may be a part): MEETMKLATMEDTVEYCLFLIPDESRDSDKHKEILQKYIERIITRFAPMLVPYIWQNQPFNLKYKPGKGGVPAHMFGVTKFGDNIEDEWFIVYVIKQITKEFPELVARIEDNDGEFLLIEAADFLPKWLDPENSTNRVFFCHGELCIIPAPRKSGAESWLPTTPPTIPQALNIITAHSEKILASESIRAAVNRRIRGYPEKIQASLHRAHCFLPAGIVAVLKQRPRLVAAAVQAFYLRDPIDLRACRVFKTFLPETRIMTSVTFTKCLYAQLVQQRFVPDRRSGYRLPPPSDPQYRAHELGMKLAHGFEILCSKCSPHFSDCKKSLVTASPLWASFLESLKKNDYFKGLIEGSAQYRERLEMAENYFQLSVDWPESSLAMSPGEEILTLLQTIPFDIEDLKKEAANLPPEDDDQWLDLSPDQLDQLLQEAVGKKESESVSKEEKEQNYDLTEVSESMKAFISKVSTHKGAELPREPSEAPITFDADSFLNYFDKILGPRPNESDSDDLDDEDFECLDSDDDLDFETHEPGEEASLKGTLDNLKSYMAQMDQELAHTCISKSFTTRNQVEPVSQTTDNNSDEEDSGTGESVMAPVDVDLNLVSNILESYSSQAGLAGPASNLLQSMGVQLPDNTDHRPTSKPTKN
Chain of UniProt P50995 (P50995 whole entry): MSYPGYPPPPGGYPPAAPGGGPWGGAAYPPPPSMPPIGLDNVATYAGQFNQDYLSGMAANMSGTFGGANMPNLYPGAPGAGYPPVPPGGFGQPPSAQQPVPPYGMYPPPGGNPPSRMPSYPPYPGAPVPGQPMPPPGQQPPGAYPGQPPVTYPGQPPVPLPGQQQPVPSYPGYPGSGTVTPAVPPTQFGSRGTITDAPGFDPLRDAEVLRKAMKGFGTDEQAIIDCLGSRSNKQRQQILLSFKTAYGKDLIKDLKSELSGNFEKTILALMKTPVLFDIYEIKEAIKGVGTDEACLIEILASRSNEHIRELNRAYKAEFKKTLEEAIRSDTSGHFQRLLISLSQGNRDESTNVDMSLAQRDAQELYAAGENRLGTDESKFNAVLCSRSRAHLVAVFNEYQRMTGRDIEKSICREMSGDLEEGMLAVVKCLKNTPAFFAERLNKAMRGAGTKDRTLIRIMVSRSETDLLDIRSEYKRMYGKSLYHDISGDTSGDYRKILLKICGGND
Chain of UniProt P80723 (P80723 whole entry): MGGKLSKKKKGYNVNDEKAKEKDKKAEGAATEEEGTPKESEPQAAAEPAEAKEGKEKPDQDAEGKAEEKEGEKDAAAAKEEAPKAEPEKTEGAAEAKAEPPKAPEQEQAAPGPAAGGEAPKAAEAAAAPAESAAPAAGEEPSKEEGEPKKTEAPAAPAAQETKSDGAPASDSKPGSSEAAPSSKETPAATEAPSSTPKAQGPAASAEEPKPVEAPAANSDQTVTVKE
Chain of UniProt Q9P0W2 (Q9P0W2 whole entry): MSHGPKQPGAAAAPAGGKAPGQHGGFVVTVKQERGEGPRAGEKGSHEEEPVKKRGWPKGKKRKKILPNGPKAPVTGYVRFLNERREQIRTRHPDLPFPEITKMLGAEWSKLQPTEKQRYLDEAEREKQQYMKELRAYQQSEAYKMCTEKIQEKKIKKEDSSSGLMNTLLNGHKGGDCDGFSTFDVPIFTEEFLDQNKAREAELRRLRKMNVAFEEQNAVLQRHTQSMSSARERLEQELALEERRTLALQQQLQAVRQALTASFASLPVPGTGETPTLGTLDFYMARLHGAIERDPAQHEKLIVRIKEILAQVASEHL
Chain of UniProt Q96JY6 (Q96JY6 whole entry): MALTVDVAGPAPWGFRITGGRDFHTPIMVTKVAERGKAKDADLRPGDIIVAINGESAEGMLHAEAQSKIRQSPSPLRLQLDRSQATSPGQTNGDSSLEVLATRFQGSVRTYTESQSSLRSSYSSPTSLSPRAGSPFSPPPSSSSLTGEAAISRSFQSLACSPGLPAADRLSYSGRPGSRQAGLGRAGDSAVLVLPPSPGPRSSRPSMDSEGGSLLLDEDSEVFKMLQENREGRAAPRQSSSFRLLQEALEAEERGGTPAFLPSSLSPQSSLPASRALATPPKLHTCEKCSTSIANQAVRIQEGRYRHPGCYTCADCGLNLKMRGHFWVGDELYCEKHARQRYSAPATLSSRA
Chain of UniProt P09913 (P09913 whole entry): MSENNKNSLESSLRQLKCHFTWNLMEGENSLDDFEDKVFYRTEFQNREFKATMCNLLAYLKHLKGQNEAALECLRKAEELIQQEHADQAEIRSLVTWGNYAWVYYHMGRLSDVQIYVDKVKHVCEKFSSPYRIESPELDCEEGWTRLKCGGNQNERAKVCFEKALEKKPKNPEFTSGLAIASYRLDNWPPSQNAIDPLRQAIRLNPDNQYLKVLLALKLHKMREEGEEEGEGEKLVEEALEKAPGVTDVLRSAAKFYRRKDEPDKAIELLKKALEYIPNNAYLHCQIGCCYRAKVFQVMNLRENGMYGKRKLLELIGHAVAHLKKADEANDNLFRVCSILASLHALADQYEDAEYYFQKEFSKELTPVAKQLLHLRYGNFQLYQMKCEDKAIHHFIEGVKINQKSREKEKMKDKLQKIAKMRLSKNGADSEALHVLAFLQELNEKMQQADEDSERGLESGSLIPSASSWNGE
Chain of UniProt Q92738 (Q92738 whole entry): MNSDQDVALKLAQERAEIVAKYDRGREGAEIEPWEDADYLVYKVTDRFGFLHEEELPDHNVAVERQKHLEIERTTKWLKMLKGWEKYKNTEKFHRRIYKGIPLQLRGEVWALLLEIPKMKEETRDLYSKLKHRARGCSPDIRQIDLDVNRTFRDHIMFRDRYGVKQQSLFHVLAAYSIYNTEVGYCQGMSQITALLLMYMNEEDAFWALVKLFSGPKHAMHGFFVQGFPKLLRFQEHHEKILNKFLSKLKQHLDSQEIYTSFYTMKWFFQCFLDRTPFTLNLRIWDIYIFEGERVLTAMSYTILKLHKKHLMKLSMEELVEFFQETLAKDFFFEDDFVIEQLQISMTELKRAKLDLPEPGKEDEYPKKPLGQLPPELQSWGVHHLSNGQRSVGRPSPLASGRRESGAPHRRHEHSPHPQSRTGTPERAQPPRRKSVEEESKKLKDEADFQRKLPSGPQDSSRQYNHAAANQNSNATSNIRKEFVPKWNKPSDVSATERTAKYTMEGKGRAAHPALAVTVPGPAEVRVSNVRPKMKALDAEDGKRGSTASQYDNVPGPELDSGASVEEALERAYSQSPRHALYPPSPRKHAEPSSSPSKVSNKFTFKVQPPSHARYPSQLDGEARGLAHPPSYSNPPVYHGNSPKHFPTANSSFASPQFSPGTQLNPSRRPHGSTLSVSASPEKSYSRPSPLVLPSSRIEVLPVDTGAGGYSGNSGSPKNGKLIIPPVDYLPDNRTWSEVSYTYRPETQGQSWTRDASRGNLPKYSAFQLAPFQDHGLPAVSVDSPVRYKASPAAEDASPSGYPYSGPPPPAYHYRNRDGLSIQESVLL

In the case of UBE2H (UniProt P62256), the thermal stability z-score (potassium arsenate) is reported as 0.295, the thermal stability z-score (lipoamide; [1]) is reported as 0.213 and the thermal stability z-score (lipoamide; arsenate co-treatment: none) is reported as -0.108.

USP6NL (UniProt Q92738) was tested, and the thermal stability z-score (potassium arsenate) was 0.0467, the thermal stability z-score (lipoamide; [1]) was 0.194 and the thermal stability z-score (lipoamide; arsenate co-treatment: none) was -0.0598.

BASP1 (UniProt P80723) was tested, and the thermal stability z-score (potassium arsenate) was -0.142, the thermal stability z-score (lipoamide; [1]) was 0.861 and the thermal stability z-score (lipoamide; arsenate co-treatment: none) was 0.592.

With GRPEL1 (UniProt Q9HAV7) the thermal stability z-score (potassium arsenate) was -0.236, the thermal stability z-score (lipoamide; [1]) was -0.953 and the thermal stability z-score (lipoamide; arsenate co-treatment: none) was 0.246.

With CYP1B1 (UniProt Q16678) the thermal stability z-score (potassium arsenate) was -0.0983, the thermal stability z-score (lipoamide; [1]) was 0.0413 and the thermal stability z-score (lipoamide; arsenate co-treatment: none) was 0.0132.

Target NPLOC4 (UniProt Q8TAT6) has a thermal stability z-score (potassium arsenate) of -0.0761, a thermal stability z-score (lipoamide; [1]) of -0.0676 and a thermal stability z-score (lipoamide; arsenate co-treatment: none) of 0.0243.

DMAP1 (UniProt Q9NPF5) gave a thermal stability z-score (potassium arsenate) of -0.644, a thermal stability z-score (lipoamide; [1]) of -0.551 and a thermal stability z-score (lipoamide; arsenate co-treatment: none) of -0.38.

For YWHAZ (UniProt P63104), the thermal stability z-score (potassium arsenate) was -0.195, the thermal stability z-score (lipoamide; [1]) was 0.146 and the thermal stability z-score (lipoamide; arsenate co-treatment: none) was -0.0541.

KCMF1 (UniProt Q9P0J7) showed a thermal stability z-score (potassium arsenate) of 0.636, a thermal stability z-score (lipoamide; [1]) of -0.251 and a thermal stability z-score (lipoamide; arsenate co-treatment: none) of -0.483.

HIBCH (UniProt Q6NVY1) showed a thermal stability z-score (potassium arsenate) of -0.476, a thermal stability z-score (lipoamide; [1]) of 0.0376 and a thermal stability z-score (lipoamide; arsenate co-treatment: none) of -0.171.

Work on DHRS7B (UniProt Q6IAN0) yielded a thermal stability z-score (potassium arsenate) of 0.0755, a thermal stability z-score (lipoamide; [1]) of 0.315 and a thermal stability z-score (lipoamide; arsenate co-treatment: none) of -0.159.

For MPST (UniProt P25325), the thermal stability z-score (potassium arsenate) was -0.099, the thermal stability z-score (lipoamide; [1]) was 0.689 and the thermal stability z-score (lipoamide; arsenate co-treatment: none) was 0.913.

For SNF8 (UniProt Q96H20), the thermal stability z-score (potassium arsenate) was -0.156, the thermal stability z-score (lipoamide; [1]) was -0.129 and the thermal stability z-score (lipoamide; arsenate co-treatment: none) was -0.418.

MRPL41 (UniProt Q8IXM3) showed a thermal stability z-score (potassium arsenate) of 0.448, a thermal stability z-score (lipoamide; [1]) of -0.202 and a thermal stability z-score (lipoamide; arsenate co-treatment: none) of 0.303.

IDE (UniProt P14735) was tested, and the thermal stability z-score (potassium arsenate) was 1.24, the thermal stability z-score (lipoamide; [1]) was 0.708 and the thermal stability z-score (lipoamide; arsenate co-treatment: none) was 0.717.

TMTC3 (UniProt Q6ZXV5) showed a thermal stability z-score (potassium arsenate) of 0.605, a thermal stability z-score (lipoamide; [1]) of -1.23 and a thermal stability z-score (lipoamide; arsenate co-treatment: none) of -0.796.

GNL3 (UniProt Q9BVP2) gave a thermal stability z-score (potassium arsenate) of -0.437, a thermal stability z-score (lipoamide; [1]) of -0.0335 and a thermal stability z-score (lipoamide; arsenate co-treatment: none) of 0.0515.

NUP210 (UniProt Q8TEM1) gave a thermal stability z-score (potassium arsenate) of 0.685, a thermal stability z-score (lipoamide; [1]) of -0.954 and a thermal stability z-score (lipoamide; arsenate co-treatment: none) of -1.03.

Work on EIF2S3 (UniProt P41091) yielded a thermal stability z-score (potassium arsenate) of 1.34, a thermal stability z-score (lipoamide; [1]) of 0.159 and a thermal stability z-score (lipoamide; arsenate co-treatment: none) of -0.567.

With FAM210A (UniProt Q96ND0) the thermal stability z-score (potassium arsenate) was -0.189, the thermal stability z-score (lipoamide; [1]) was -0.412 and the thermal stability z-score (lipoamide; arsenate co-treatment: none) was -0.508.

For KCTD9 (UniProt Q7L273), the thermal stability z-score (potassium arsenate) was -0.315, the thermal stability z-score (lipoamide; [1]) was 0.34 and the thermal stability z-score (lipoamide; arsenate co-treatment: none) was 0.375.

With CHAMP1 (UniProt Q96JM3) the thermal stability z-score (potassium arsenate) was -0.567, the thermal stability z-score (lipoamide; [1]) was -0.202 and the thermal stability z-score (lipoamide; arsenate co-treatment: none) was -0.497.

Target ANXA11 (UniProt P50995) has a thermal stability z-score (potassium arsenate) of 1.77, a thermal stability z-score (lipoamide; [1]) of 3.8 and a thermal stability z-score (lipoamide; arsenate co-treatment: none) of 3.23.

DIS3L2 (UniProt Q8IYB7) gave a thermal stability z-score (potassium arsenate) of 0.155, a thermal stability z-score (lipoamide; [1]) of -0.225 and a thermal stability z-score (lipoamide; arsenate co-treatment: none) of 0.566.

With RPS27A (UniProt P62979) the thermal stability z-score (potassium arsenate) was -1.18, the thermal stability z-score (lipoamide; [1]) was 0.106 and the thermal stability z-score (lipoamide; arsenate co-treatment: none) was -0.431.

MPP6 showed a thermal stability z-score (potassium arsenate) of -0.29, a thermal stability z-score (lipoamide; [1]) of -0.288 and a thermal stability z-score (lipoamide; arsenate co-treatment: none) of -0.0854.

NUBP1 (UniProt P53384) showed a thermal stability z-score (potassium arsenate) of -0.302, a thermal stability z-score (lipoamide; [1]) of -0.23 and a thermal stability z-score (lipoamide; arsenate co-treatment: none) of 0.385.

For TMED10 (UniProt P49755), the thermal stability z-score (potassium arsenate) was 0.275, the thermal stability z-score (lipoamide; [1]) was -1.53 and the thermal stability z-score (lipoamide; arsenate co-treatment: none) was -1.03.

For N4BP1 (UniProt O75113), the thermal stability z-score (potassium arsenate) was -0.0968, the thermal stability z-score (lipoamide; [1]) was 0.103 and the thermal stability z-score (lipoamide; arsenate co-treatment: none) was 0.0755.

FAM213A (UniProt Q9BRX8) gave a thermal stability z-score (potassium arsenate) of -0.29, a thermal stability z-score (lipoamide; [1]) of -0.192 and a thermal stability z-score (lipoamide; arsenate co-treatment: none) of -0.476.

COPG1 (UniProt Q9Y678) was tested, and the thermal stability z-score (potassium arsenate) was -0.32, the thermal stability z-score (lipoamide; [1]) was 0.243 and the thermal stability z-score (lipoamide; arsenate co-treatment: none) was -0.177.

IRGQ (UniProt Q8WZA9) showed a thermal stability z-score (potassium arsenate) of -0.24, a thermal stability z-score (lipoamide; [1]) of -0.249 and a thermal stability z-score (lipoamide; arsenate co-treatment: none) of -0.257.

Target PDLIM2 (UniProt Q96JY6) has a thermal stability z-score (potassium arsenate) of -0.0521, a thermal stability z-score (lipoamide; [1]) of -0.719 and a thermal stability z-score (lipoamide; arsenate co-treatment: none) of -0.463.

IFIT2 (UniProt P09913) gave a thermal stability z-score (potassium arsenate) of -0.392, a thermal stability z-score (lipoamide; [1]) of -0.00168 and a thermal stability z-score (lipoamide; arsenate co-treatment: none) of -0.0988.

Target RAB11B (UniProt Q15907) has a thermal stability z-score (potassium arsenate) of -0.384, a thermal stability z-score (lipoamide; [1]) of -0.384 and a thermal stability z-score (lipoamide; arsenate co-treatment: none) of -1.01.

Work on ARF6 (UniProt P62330) yielded a thermal stability z-score (potassium arsenate) of 0.683, a thermal stability z-score (lipoamide; [1]) of 0.394 and a thermal stability z-score (lipoamide; arsenate co-treatment: none) of 0.237.

For ECD (UniProt O95905), the thermal stability z-score (potassium arsenate) was -0.232, the thermal stability z-score (lipoamide; [1]) was -0.47 and the thermal stability z-score (lipoamide; arsenate co-treatment: none) was -0.00943.

Work on RAN (UniProt P62826) yielded a thermal stability z-score (potassium arsenate) of 0.547, a thermal stability z-score (lipoamide; [1]) of 0.345 and a thermal stability z-score (lipoamide; arsenate co-treatment: none) of -0.105.

EIF4B (UniProt P23588) showed a thermal stability z-score (potassium arsenate) of 0.032, a thermal stability z-score (lipoamide; [1]) of 0.102 and a thermal stability z-score (lipoamide; arsenate co-treatment: none) of 0.429.

Work on TSPAN13 (UniProt O95857) yielded a thermal stability z-score (potassium arsenate) of -0.0847, a thermal stability z-score (lipoamide; [1]) of 0.229 and a thermal stability z-score (lipoamide; arsenate co-treatment: none) of 0.441.

PPWD1 (UniProt Q96BP3) gave a thermal stability z-score (potassium arsenate) of -0.656, a thermal stability z-score (lipoamide; [1]) of -0.218 and a thermal stability z-score (lipoamide; arsenate co-treatment: none) of -0.513.

NRBF2 (UniProt Q96F24) was tested, and the thermal stability z-score (potassium arsenate) was -0.0833, the thermal stability z-score (lipoamide; [1]) was 0.638 and the thermal stability z-score (lipoamide; arsenate co-treatment: none) was 0.117.

Work on SSU72 (UniProt Q9NP77) yielded a thermal stability z-score (potassium arsenate) of -0.473, a thermal stability z-score (lipoamide; [1]) of -0.256 and a thermal stability z-score (lipoamide; arsenate co-treatment: none) of -0.465.

Work on LCMT1 (UniProt Q9UIC8) yielded a thermal stability z-score (potassium arsenate) of -0.0988, a thermal stability z-score (lipoamide; [1]) of 0.437 and a thermal stability z-score (lipoamide; arsenate co-treatment: none) of 0.614.

RAB1A (UniProt P62820) was tested, and the thermal stability z-score (potassium arsenate) was 0.312, the thermal stability z-score (lipoamide; [1]) was 0.28 and the thermal stability z-score (lipoamide; arsenate co-treatment: none) was 0.338.

HMG20B (UniProt Q9P0W2) showed a thermal stability z-score (potassium arsenate) of 0.0621, a thermal stability z-score (lipoamide; [1]) of -0.211 and a thermal stability z-score (lipoamide; arsenate co-treatment: none) of -0.0202.

In the case of AGRN (UniProt O00468), the thermal stability z-score (potassium arsenate) is reported as 0.582, the thermal stability z-score (lipoamide; [1]) is reported as -0.718 and the thermal stability z-score (lipoamide; arsenate co-treatment: none) is reported as -1.6.

Work on P3H2 (UniProt Q8IVL5) yielded a thermal stability z-score (potassium arsenate) of 1.11, a thermal stability z-score (lipoamide; [1]) of -4.71 and a thermal stability z-score (lipoamide; arsenate co-treatment: none) of -4.05.

Target ALG6 (UniProt Q9Y672) has a thermal stability z-score (potassium arsenate) of -0.233, a thermal stability z-score (lipoamide; [1]) of 0.3 and a thermal stability z-score (lipoamide; arsenate co-treatment: none) of 0.171.

XPR1 (UniProt Q9UBH6) showed a thermal stability z-score (potassium arsenate) of 0.209, a thermal stability z-score (lipoamide; [1]) of -0.458 and a thermal stability z-score (lipoamide; arsenate co-treatment: none) of -0.47.

With PPP1R37 (UniProt O75864) the thermal stability z-score (potassium arsenate) was -0.0199, the thermal stability z-score (lipoamide; [1]) was -0.153 and the thermal stability z-score (lipoamide; arsenate co-treatment: none) was -0.186.

NSRP1 (UniProt Q9H0G5) was tested, and the thermal stability z-score (potassium arsenate) was 1.07, the thermal stability z-score (lipoamide; [1]) was 0.844 and the thermal stability z-score (lipoamide; arsenate co-treatment: none) was 0.0777.

ERGIC3 (UniProt Q9Y282) showed a thermal stability z-score (potassium arsenate) of -0.464, a thermal stability z-score (lipoamide; [1]) of -1.11 and a thermal stability z-score (lipoamide; arsenate co-treatment: none) of -0.784.

TARBP2 (UniProt Q15633) showed a thermal stability z-score (potassium arsenate) of -0.00318, a thermal stability z-score (lipoamide; [1]) of 0.357 and a thermal stability z-score (lipoamide; arsenate co-treatment: none) of 0.542.

BRAT1 (UniProt Q6PJG6) was tested, and the thermal stability z-score (potassium arsenate) was 0.562, the thermal stability z-score (lipoamide; [1]) was -0.267 and the thermal stability z-score (lipoamide; arsenate co-treatment: none) was -0.15.
